# Reference: US7144862B2, “Orally administered peptides to ameliorate atherosclerosis” (The Regents of the University of California, priority 2000, dated 2006)
# “And” between values parts separate entries of the source, which are not always exact repeats. Equal entries are not always repeated.
# Key:
# [1] = system: LDL receptor null mice on a Western diet; assay: Aortic root lesions, oral gavage twice daily for 6 weeks; format: in vivo, mouse; settings: oral gavage twice daily for 6 weeks (2.5 mg in liposomes)
# Procedure: Groups of LDL receptor null mice were placed on a Western diet and were given by oral gavage, 100 μl of saline alone (Saline), n=4 animals, or 100 μl of liposomes without D-4F (Liposomes), n=5 animals, or 2.5 mg D-4F peptide in 100 μl liposomes (D-4F in liposomes), n=6 animals, twice daily for 6 weeks. The mice were bled, and subsequently sacrificed, aortic root fixed, sectioned and the extent of Oil Red O staining in fatty streak lesions quantified.
# Female LDL receptor null or apo E null mice on a C57BL/6J background were purchased from the Jackson Laboratory, Bar Harbor, Me. The LDL receptor null mice were maintained on Purina chow diet (Ralston Purina Co.) until they were 4 weeks old when they were switched to a Western diet (Teklad, Madison, Wis., diet # 88137) for 6 weeks. The apo E null mice were maintained on Purina chow diet throughout the study LDL receptor null mice received the test peptide or a vehicle control by gastric gavage twice daily for the periods indicated in the figure legends. […]
# Mice were bled under anesthesia from the retro-orbital venous plexus, in accordance with protocols approved by the UCLA Animal Research Committee. Atherosclerotic lesions were measured as previously described^9.
# [2] = system: mice infected with Influenza A virus; format: in vivo, mouse; settings: 20 micrograms daily injected after infection
# [3] = system: human artery wall cell cocultures; assay: Lipoproteins from mice given peptide by gavage tested in human artery wall cell cocultures (monocyte chemotactic activity); settings: 4F, 100 μg by oral gavage, LDL receptor deficient mice, blood after 6 hrs
# Procedure: Groups of LDL receptor-deficient mice (n=3) were administered the D-peptides or the saline vehicle by gavage. […] Blood was collected from retroorbital sinus under mild anesthesia 17 hrs later. LDL was isolated from plasma by FPLC. Cocultures of artery wall cells were incubated with medium alone (NO ADDITION), control LDL from normal subjects (LDL), LDL plus control HDL from normal subjects (+HDL). […] The cocultures were incubated for 4 hrs at 37° C. in the presence of 10% LPDS. The supernatants were then discarded, the cocultures were washed and incubated with culture medium without serum or LPDS for an additional 4 hrs. This conditioned medium was collected and analyzed for monocyte chemotactic activity. The values are mean±SD of quadruplicate cocultures.
# Blood was collect after 6 hrs, plasma HDL and LDL were isolated by gel filtration (FPLC) and examined in the cocultures. […] Human LDL at 200 μg protein/ml was added to human artery wall cell cocultures together with human HDL (hHDL) at 350 μg protein/ml or mouse HDL (mHDL) at 100 μg cholesterol/ml taken from mice that received saline (Saline Rx) or L-4F (L-4F Rx) or D-4F (D-4F Rx) and monocyte chemotactic activity was determined as described herein. […] On the right, mouse LDL (mLDL) was isolated from mice receiving saline (Saline Rx) or L-4F (L4F Rx) or D-4F (D-4F Rx) and was added at 100 μg cholesterol/ml to the artery wall cell cocultures without HDL and monocyte chemotactic activity determined. Values are mean±SD) for four wells in two independent experiments.
# Either saline or 2F synthesized from D amino acids or from L amino acids was instilled in the stomachs of mice by gavage (instillation in the stomach by tube). After gavage the mice were bled and their LDL isolated and added to the human artery wall cell cocultures.
# The animals were bled 1.5, 3 or 6 hours later and their HDL, LDL, and VLDL/IDL isolated.
# Human aortic endothelial and smooth muscle cells were isolated and cultured as previously described (Id.). Cellular oxidation of LDL in the presence and absence of HDL was determined as described (Id.). Human blood monocytes were isolated after obtaining informed consent and monocyte chemotaxis was determined as described previously^5.
# [4] = Plasma total and HDL cholesterol after oral D-4F; format: in vivo, mouse; settings: for Mean HDL-cholesterol / plasma total cholesterol concentration: apo E null mice
# Procedure: Protein (Navab et al. (2000) J Lipid Res. 41: 1481–1494) and cholesterol (Van Lenten et al. (2001) Circulation, 103: 2283–2288) content of lipoproteins and statistical analyses were performed as described by Van Lenten et al. (2001) Circulation, 103: 2283–2288, with significance defined as P<0.05.
# C57 BL6 mice = assay: Diet-induced lesion formation with 2F; format: in vivo, mouse
# From the text: It follows that in this mouse model, inhibition of LDL-induced monocyte chemotaxis is more anti-atherogenic than LCAT activation. Since the peptides 2F and 4F are similar in activating LCAT, and 4F and 5F are similar in removing “seeding molecules” from LDL, the peptide 4F may serve as a reagent to distinguish between the importance of LCAT activation and the inhibition of LDL-induced monocyte chemotaxis in different atherosclerosis-sensitive mouse models. If the inhibition of LDL-induced chemotaxis is more important than the LCAT-activating ability, then 4F should be better peptide to use as an inhibitor of atherosclerosis since this peptide is more soluble than the peptides 5F, 6F and 7F.
# Solubility in PBS = format: physicochemical; settings: in PBS
# Procedure: The peptides were purified on a preparative Vydac C4 column by reversed-phase (RP)-HPLC using water (with 0.1% trifluoroacetic acid) and acetonitrile (0.1% trifluoroacetic acid). The purity and the retention times of the peptides were determined on an analytical Vydac C18 column using a gradient of 25%-58% acetonitrile in water containing 0.1% TFA. The purity of these peptides was also confirmed by mass spectrometry. The mass was in agreement with the calculated molecular weight. Although both the 3F peptides and 4F have additional Phe residues compared to 2F, the retention times of these peptides on the C18 column are not very different (˜22 min). A sudden increase in the retention time is apparent with 5F, 6F and 7F (˜26 min). With increasing number of Phe residues, the solubility of these peptides in PBS decreases.
# [5] = Surface pressure measurements: monolayer exclusion pressure; format: physicochemical; settings: EPC monolayer; reproducibility ± 1 dyn/cm
# Procedure: An insoluble monolayer of egg phosphatidylcholine (EPC) was spread at the air-water interface in a Teflon dish at room temperature to give an initial surface pressure (πi) in the range of 5–45 dyn/cm. A solution of peptides in PBS containing 1.5M Gdn. HCl was carefully injected in to the subphase to give a final concentration of 50 μg/dL. The Gdn. HCl was diluted in the subphase to a final concentration of ≦1 mM to allow the peptides to renature. The subphase was stirred continuously and the increase in EPC monolayer surface pressure (Δπ) was recorded until a steady state value was obtained. The value of the initial surface pressure (πi) at which the peptides no longer penetrate the EYPC monolayer i.e. the exclusion pressure (πe), was calculated by extrapolating the πi vs Δπ linear regression fit to Δπ=0 dyn/cm.
# [6] = DSC, chain melting transition of DMPC; format: physicochemical; settings: DMPC/peptide 100:1 (mol/mol)
# Procedure: (§1) A known amount of phospholipid was dissolved in chloroform. For one set of samples, peptide was dissolved in methanol and added to a solution of DiPoPE in chloroforn/methanol (2:1, v:v). For both, pure lipid samples and the organic solutions of lipid and peptide, solvent was removed under a slow stream of nitrogen. Residual solvent was removed under vacuum. […] For DMPC, four consecutive scans with a 60 minute equilibration time between scans were taken. DSC thermograms were analyzed using the software provided by MicroCal Inc., Amherst, Mass., and Origin, version 5.0.
# The effect of these 18A analogues on the chain melting transition of multilamellar vesicles of DMPC was studied by DSC using peptide-lipid mixtures at 100:1 lipid/peptide molar ratio.
# [7] = Right angle light scattering, dissolution of EPC MLVs; format: physicochemical; settings: 105 μM EPC, equimolar peptide, 25° C., 30 min
# Procedure: EPC MLVs were prepared by evaporating a solution of EPC (Avanti Polar, AL) under nitrogen and hydrating the lipid film with phosphate-buffered saline (pH 7.4). […] Turbidity clarification was monitored for 30 min.
# [8] = Circular dichroism, percent helicity; format: physicochemical
# Procedure: Briefly, spectra were obtained using a cell with a 0.1 cm path length and measurements were taken every nm from 260 nm to 190 nm at 25° C. All the CD spectra were signal averaged by adding four scans, base line corrected and smoothed. Peptide solutions in PBS, pH 7.4, were used at a concentration of 11 μM. Peptide-DMPC complexes (1:20 mol:mol) were used to determine the effect of lipid binding on the helicity of these peptides. These complexes were prepared by adding the appropriate volume of peptide solution to DMPC multilamellar vesicles. DMPC multilamellar vesicles were prepared as follows: A known amount of lipid was dissolved in ethanol and the solvent was removed by evaporating slowly under a thin stream of nitrogen. Residual solvent was removed by storing the lipid film under vacuum overnight. An appropriate volume of PBS, pH 7.4 was added to the thin lipid film to give the required final concentration of DMPC.
# [9] = system: human artery wall cell cocultures; assay: LDL-induced monocyte chemotactic activity with the homologous series of peptides (Example 3); format: cell-based; settings: peptide at 100 μg/ml, LDL 250 μg protein/ml, 8 h
# Procedure: Microtitre plates were treated with 0.1% gelatin at 37° C. overnight. HASMC were added at a confluent density of 1×10^5 cells/cm^2. […] HAEC were subsequently added at 2×10^5 cells/cm^2 and were allowed to grow, forming a complete monolayer of confluent HAEC in two days. In all experiments, HAEC and autologous HASMC (from the same donor) were used at passage levels of four to six. […] The cocultures were treated with native LDL(250 μg protein/ml) or presence of HDL (350 μg protein/ml) or peptides for 8 h.
# [10] = Non-denaturing PAGE, self-association; format: physicochemical; settings: 100 and 250 μg/ml
# Procedure: Non-denaturing and SDS-PAGE and was carried out using the method of Laemmli (1970) Nature 227: 680–685. Premade Novex gels were used and the gel was stained with Coomassie blue to identify the protein bands.
# [11] = DSC, bilayer to hexagonal phase transition of DiPoPE; format: physicochemical; settings: heating scan rate 37°/h
# Procedure: as §1
# In the current study we prepared the peptide-lipid mixtures in two ways. One was by adding the peptide in organic solvent to the lipid in organic solvent followed by depositing the material as a film and subsequently hydrating with buffer. In the other method, the peptide and lipid were mixed after each was hydrated separately. If the mixture comes to equilibrium prior to the DSC analysis, it should not matter how the peptide and lipid are originally mixed. However, membrane systems can equilibrate slowly, in which case there may be more peptide in the lipid when it was incorporated at high concentrations into the lipid film.
# [12] = LDL receptor null mice, Western diet, gavage twice daily 6 weeks
# [13] = 2.5 mg/mouse/day in drinking water
# [14] = 5.0 mg/mouse/day in drinking water
compound,measurement,setting,value
"CC(=O)N[C@H](CC(=O)O)C(=O)N[C@H](Cc1c[nH]c2ccccc12)C(=O)N[C@H](Cc1ccccc1)C(=O)N[C@H](CCCCN)C(=O)N[C@H](C)C(=O)N[C@H](Cc1ccccc1)C(=O)N[C@H](Cc1ccc(O)cc1)C(=O)N[C@H](CC(=O)O)C(=O)N[C@H](CCCCN)C(=O)N[C@@H](C(=O)N[C@H](C)C(=O)N[C@H](CCC(=O)O)C(=O)N[C@H](CCCCN)C(=O)N[C@H](Cc1ccccc1)C(=O)N[C@H](CCCCN)C(=O)N[C@H](CCC(=O)O)C(=O)N[C@H](C)C(=O)N[C@H](Cc1ccccc1)C(N)=O)C(C)C [Peptide D-4F, Ac-D-W-F-K-A-F-Y-D-K-V-A-E-K-F-K-E-A-F-NH2]",reduction in atherosclerotic lesions,[1],79% and 81%
same,biologically active oxidized phospholipids in the aorta after influenza A infection,[2],not generated beyond background
same,plasma paraoxonase levels after influenza A infection,[2],did not fall
same,HDL protective capacity,[3],enhance HDL protective capacity
same,LDL-induced monocyte chemotactic activity (mouse LDL),[3],decrease LDL-induced monocyte chemotactic activity
same,Total cholesterol,[4]; [12],761 ± 69 mg/dL
same,mean HDL-cholesterol level,[4]; [12],73 ± 8.7 mg/dL
same,Mean HDL-cholesterol,[4]; [13],38.7 ± 5 mg/dL
same,plasma total cholesterol concentration,[4]; [13],534 ± 12.3 mg/dL
same,Mean HDL-cholesterol,[4]; [14],43.4 ± 6 mg/dL
same,plasma total cholesterol concentration,[4]; [14],579 ± 4.6 mg/dL
"Ac-DWLKAFYDKVAEKLKEAF-NH2 [Peptide 2F, Ac-D-W-L-K-A-F-Y-D-K-V-A-E-K-L-K-E-A-F-NH2]",mean lesion area,"C57 BL6 mice; 2F-administered mice, n=15, PBS control 14.7±1.8",13.2±1.7 μm^2×10^−3
same,inhibition of diet-induced lesion formation,C57 BL6 mice; C57 BL6 mice,did not significantly inhibit diet-induced lesion formation
same,Solubility,Solubility in PBS,>2.0 mg/mL
same,solubility,Solubility in PBS; read-out: Solubility,1250 to 1400 µg/mL
same,Monolayer Exclusion Pressure(πc),[5],38 dyn/cm
same,TCM(° C.),"[6]; 1.5 mM DMPC, chain melting transition temperature",23.2 °C
same,ΔHCM (kcals/mol),[6]; enthalpy of the transition,4.5 kcals/mol
same,ΔT1/2 (° C.),[6]; width at half maximum of the transition,0.5 °C
same,clarification of EPC MLVs,[7],clarified the EPC MLVs to a similar extents
same,Percent Helicity PBS,[8]; 11 μM peptide in PBS,55%
same,Percent Helicity DMPC,"[8]; 11 μM peptide, Peptide: DMPC 1:20 (mol/mol)",72%
same,inhibition of LDL-induced monocyte chemotaxis,[9],some inhibitory activity
same,self-association on non-denaturing PAGE,[10],forms aggregates in a concentration dependent manner
same,shift in TH of DiPoPE with mol fraction of peptide,[11],linear increase in TH
